Experimental data as given in ChEMBL document CHEMBL1649561, “H-NS modulates multidrug resistance of Salmonella enterica serovar Typhimurium by repressing multidrug efflux genes acrEF” (2009).
Converted amounts (≈) assume the structure as drawn.

What was measured:
Assay type in all cases: functional
[1] = system: Salmonella enterica; experiment: Antibacterial activity against Salmonella enterica ATCC 14028 by CLSI method
[2] = system: Salmonella enterica; experiment: Antibacterial activity against acrB-deficient Salmonella enterica NKS175 by CLSI method
[3] = system: Salmonella enterica; experiment: Antibacterial activity against acrB-deficient Salmonella enterica NKS291 harboring hns gene by CLSI method
[4] = system: Salmonella enterica; experiment: Antibacterial activity against tolC-deficient Salmonella enterica NKS174 by CLSI method
[5] = system: Salmonella enterica; experiment: Antibacterial activity against tolC-deficient Salmonella enterica NKS419 harboring hns gene by CLSI method
[6] = system: Salmonella enterica; experiment: Antibacterial activity against acrEF-deficient Salmonella enterica NKS176 by CLSI method
[7] = system: Salmonella enterica; experiment: Antibacterial activity against acrB-deficient Salmonella enterica NKS422 harboring acrEF gene by CLSI method
[8] = system: Salmonella enterica; experiment: Antibacterial activity against acrB-deficient Salmonella enterica NKS416 harboring acrEF, hns gene by CLSI method

SMILES	MIC [1] [µg/mL]	MIC [2] [µg/mL]	MIC [3] [µg/mL]	MIC [4] [µg/mL]	MIC [5] [µg/mL]	MIC [6] [µg/mL]	MIC [7] [µg/mL]	MIC [8] [µg/mL]
Cn1nnnc1SCC1=C(C(=O)O)N2C(=O)[C@@H](NC(=O)[C@H](O)c3ccccc3)[C@H]2SC1 [CEFAMANDOLE]	1 (≈ 2.16 µM)	0.063 (≈ 0.136 µM)	0.25 (≈ 0.541 µM)	0.063 (≈ 0.136 µM)	0.063 (≈ 0.136 µM)	0.5 (≈ 1.08 µM)	0.063 (≈ 0.136 µM)	0.063 (≈ 0.136 µM)
CCOc1ccc2ccccc2c1C(=O)N[C@@H]1C(=O)N2[C@@H]1SC(C)(C)[C@@H]2C(=O)O [NAFCILLIN]	> 512	8 (≈ 19.3 µM)	64 (≈ 154 µM)	1 (≈ 2.41 µM)	1 (≈ 2.41 µM)	> 512	4 (≈ 9.65 µM)	4 (≈ 9.65 µM)
Cc1onc(-c2ccccc2)c1C(=O)N[C@@H]1C(=O)N2[C@@H]1SC(C)(C)[C@@H]2C(=O)O [OXACILLIN]	512 (≈ 1280 µM)	2 (≈ 4.98 µM)	16 (≈ 39.9 µM)	0.5 (≈ 1.25 µM)	0.5 (≈ 1.25 µM)	512 (≈ 1280 µM)	1 (≈ 2.49 µM)	1 (≈ 2.49 µM)
Cc1onc(-c2ccccc2Cl)c1C(=O)N[C@@H]1C(=O)N2[C@@H]1SC(C)(C)[C@@H]2C(=O)O [CLOXACILLIN]	512 (≈ 1170 µM)	4 (≈ 9.18 µM)	128 (≈ 294 µM)	0.5 (≈ 1.15 µM)	0.5 (≈ 1.15 µM)	512 (≈ 1170 µM)	4 (≈ 9.18 µM)	4 (≈ 9.18 µM)
CC/N=c1\cc2oc3cc(NCC)c(C)cc3c(-c3ccccc3C(=O)OCC)c-2cc1C.Cl [RHODAMINE 6G HYDROCHLORIDE]	> 512	8	32	8	8	> 512	8	8
CN(C)c1ccc2nc3ccc(N(C)C)cc3[s+]c2c1.[Cl-] [METHYLENE BLUE ANHYDROUS]	> 512	16	512	16	16	> 512	16	16
